Reference: the supplement of paper PMC10307832

Key:
Assay in all cases: relative viability (nuclei count vs DMSO), 5 days (fraction); higher = more cells survive
[1] = compound: CN(c1ncccc1CNc1nc(Nc2ccc3c(c2)CC(=O)N3)ncc1C(F)(F)F)S(C)(=O)=O + CC(=O)Nc1cccc(-n2c(=O)n(C3CC3)c(=O)c3c(Nc4ccc(I)cc4F)n(C)c(=O)c(C)c32)c1 [Trametinib] (partner 0.02 µM)
Method in brief: (§1)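 Lung cancer cell lines in 1536-well plates got either a single drug or a fixed anchor-drug dose together with five library-drug doses (not always all listed) in √10 steps, by pin tool, on the day after seeding. Nuclei were counted after 5 days, and relative viability is the treated-to-vehicle ratio of nuclei counts. Values are medians of duplicate plates.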

[2] = compound: CN(c1ncccc1CNc1nc(Nc2ccc3c(c2)CC(=O)N3)ncc1C(F)(F)F)S(C)(=O)=O + COc1cccc2cc(-c3nc([C@H]4CC[C@H](C(=O)O)CC4)n4ncnc(N)c34)[nH]c12 [OSI-027] (partner 0.5 µM)
Method in brief: as §1

[3] = compound: CN(c1ncccc1CNc1nc(Nc2ccc3c(c2)CC(=O)N3)ncc1C(F)(F)F)S(C)(=O)=O + CS(=O)(=O)CCNCc1ccc(-c2ccc3ncnc(Nc4ccc(OCc5cccc(F)c5)c(Cl)c4)c3c2)o1 [Lapatinib] (partner 2 µM)
Method in brief: as §1

[4] = compound: CN(c1ncccc1CNc1nc(Nc2ccc3c(c2)CC(=O)N3)ncc1C(F)(F)F)S(C)(=O)=O + C[C@]1(O)C[C@@H](c2nc(-c3ccc4ccc(-c5ccccc5)nc4c3)c3c(N)nccn32)C1 [Linsitinib] (partner 1 µM)
Method in brief: as §1

Cell Line | relative viability ([1]; first compound 0.01 µM) | relative viability ([1]; first compound 0.03162 µM) | relative viability ([1]; first compound 0.1 µM) | relative viability ([1]; first compound 0.3162 µM) | relative viability ([1]; first compound 1 µM) | relative viability ([2]; first compound 0.01 µM) | relative viability ([2]; first compound 0.03162 µM) | relative viability ([2]; first compound 0.1 µM) | relative viability ([2]; first compound 0.3162 µM) | relative viability ([2]; first compound 1 µM) | relative viability ([3]; first compound 0.01 µM) | relative viability ([3]; first compound 0.03162 µM) | relative viability ([3]; first compound 0.1 µM) | relative viability ([3]; first compound 0.3162 µM) | relative viability ([3]; first compound 1 µM) | relative viability ([4]; first compound 0.01 µM) | relative viability ([4]; first compound 0.03162 µM) | relative viability ([4]; first compound 0.1 µM) | relative viability ([4]; first compound 0.3162 µM) | relative viability ([4]; first compound 1 µM)
HCC-78 | 0.681 | 0.864 | 0.753 | 0.641 | 0.507 | 0.378 | 0.399 | 0.36 | 0.421 | 0.353 | 1.09 | 0.748 | 0.708 | 0.713 | 0.329 | 0.654 | 0.578 | 0.425 | 0.439 | 0.486
HCC-366 | 0.41 | 0.398 | 0.296 | 0.303 | 0.308 | 0.786 | 1.01 | 0.846 | 0.996 | 0.973 | 1 | 1.11 | 1.05 | 1.06 | 0.971 | 0.488 | 0.913 | 0.591 | 0.576 | 0.508
HCC-827 | 0.574 | 0.517 | 0.496 | 0.56 | 0.495 | 0.765 | 0.775 | 0.821 | 0.799 | 0.759 | 0.186 | 0.149 | 0.215 | 0.177 | 0.182 | 0.999 | 0.915 | 0.93 | 0.905 | 0.914
HOP-62 | 0.353 | 0.438 | 0.379 | 0.332 | 0.306 | 0.956 | 0.804 | 0.743 | 0.825 | 0.731 | 1.06 | 1.1 | 1.02 | 1.09 | 0.903 | 0.843 | 1.09 | 1.06 | 0.786 | 0.933
IA-LM |  |  |  |  |  |  |  |  |  |  | 0.884 | 0.82 | 0.887 | 0.608 | 0.56 | 0.6 | 0.54 | 0.583 |  | 0.599
LC-2-ad | 0.876 | 0.932 | 0.926 | 0.905 | 0.793 | 0.874 | 0.851 | 0.905 | 0.827 | 0.758 | 1.12 | 0.958 | 1 | 0.864 | 0.756 | 0.85 | 0.784 | 0.862 | 0.786 | 0.847
LCLC-97TM1 | 0.207 | 0.189 | 0.184 | 0.206 | 0.124 | 0.512 | 0.524 | 0.42 | 0.458 | 0.576 |  | 0.658 | 0.841 | 0.752 | 0.516 |  | 0.226 | 0.167 | 0.216 | 0.152
LCLC-103H | 0.674 | 0.687 | 0.675 | 0.704 | 0.673 | 0.497 | 0.399 | 0.422 | 0.448 | 0.424 |  |  |  |  |  | 1.1 | 1.1 | 0.983 | 0.977 | 0.88
LK-2 | 0.897 | 0.973 | 0.679 | 0.73 | 0.601 | 0.198 | 0.157 | 0.244 | 0.205 | 0.18 | 1.16 | 1.21 | 1.02 | 0.984 | 1 | 0.631 | 0.534 | 0.546 | 0.526 | 0.766
LOU-NH91 | 0.802 | 0.793 | 0.75 | 0.819 | 0.787 | 0.714 | 0.82 | 0.685 | 0.823 | 0.801 | 0.777 | 0.714 | 0.73 | 0.743 | 0.741 | 0.988 | 1.02 | 1.02 | 1.08 | 1.11
LU99A | 0.559 | 0.663 | 0.564 | 0.65 | 0.574 | 0.284 | 0.279 | 0.27 | 0.277 | 0.352 | 0.971 | 1.19 | 1.01 | 1.17 | 1.08 | 0.582 | 0.552 | 0.609 | 0.537 | 0.656
LXF-289 | 0.706 | 0.693 | 0.648 | 0.664 | 0.633 | 0.806 | 0.807 | 0.707 | 0.641 | 0.762 | 0.949 | 0.883 | 0.9 | 0.925 | 0.89 | 1.03 | 1.03 | 0.95 | 0.947 | 0.936
NCI-H441 | 0.457 | 0.461 | 0.402 | 0.336 | 0.403 | 0.76 | 0.725 | 0.596 | 0.77 | 0.518 |  |  |  |  |  | 0.457 | 0.707 | 0.513 | 0.583 | 0.536
NCI-H1299 |  |  |  |  |  |  |  |  |  |  | 1.03 | 0.949 | 1 | 0.988 | 0.972 | 1.06 | 1.05 | 0.961 | 0.976 | 0.986
NCI-H1563 |  |  |  |  |  | 0.78 | 0.79 | 0.771 | 0.788 | 0.753 | 0.906 | 0.839 | 0.857 | 0.942 | 1.07 | 1.16 | 1.23 | 1.31 | 1.07 | 1.06
NCI-H1648 | 0.417 | 0.435 | 0.462 | 0.392 | 0.301 | 0.28 | 0.237 | 0.266 | 0.25 | 0.24 |  |  |  |  |  |  |  |  |  | 
NCI-H1650 | 0.647 | 0.587 | 0.582 | 0.57 | 0.483 | 0.64 | 0.727 | 0.701 | 0.612 | 0.645 | 0.78 | 0.9 | 0.805 |  | 0.592 |  |  |  |  | 
NCI-H1703 |  |  |  |  |  |  |  |  |  |  | 1.05 | 1.13 | 1.27 | 1.41 | 1.01 | 0.692 | 0.647 | 0.756 | 0.836 | 0.637
NCI-H2170 | 0.964 | 0.906 | 0.895 | 0.956 | 0.94 | 0.672 | 0.695 | 0.679 | 0.791 | 0.752 | 0.263 | 0.254 | 0.267 |  | 0.276 |  |  |  |  | 
NCI-H2342 | 0.906 | 0.819 | 0.753 | 0.774 | 0.806 | 0.579 | 0.614 | 0.617 | 0.519 | 0.57 |  |  |  |  |  |  |  |  |  | 
SW 900 | 0.846 | 0.726 | 0.761 | 0.757 | 0.739 | 0.623 | 0.574 | 0.659 | 0.514 | 0.49 |  |  |  |  |  |  |  |  |  | 
